Reference: patent US7897401B2, “Control of apoptosis by controlling the propensity of ceramide channel formation” (University of Maryland, College Park, priority 2005, dated 2011)

Columns and labels:
[1] = Ability of sphingolipids to form channels in membranes; format: biochemical
Excerpt: The present invention establishes that sphingosine is capable of directly disassembling ceramide channels, thus proving the existence of this novel anti-apoptotic regulatory step. The ability of sphingosine, sphingosine-1-phosphate ([…]) and ceramide-1-phosphate the ability to form channels was investigated.

[2] = test system: ceramide channels in liposomes; assay: Liposome carboxyfluorescein release (ceramide channel formation in liposomes); format: biochemical; conditions: C16-ceramide 80 μg, liposomes 90 μg lipid
Method: The polar extract of soybean phospholipids (Avanti Polar Lipids, Alabaster, Ala.) and cholesterol (Sigma Chemical, St. Louis, Mo.) were mixed in a 93:7 molar ratio in chloroform and dried under nitrogen followed by drying in vacuo overnight. This mixture resembles the lipid content of mammalian mitochondrial outer membranes. Five mg of this mixture were dispersed in 1 mL of 39 mM NaCl, 6 mM DPX (Molecular Probes, Eugene, Oreg.), 1.5 mM carboxyfluorescein (Acros Organics, Geel, Belgium) and subjected to four freeze-thaw/sonication cycles. After extrusion through a 0.2 μm filter (Avanti Polar Lipids) for 13 passes it was run through a gel filtration column equilibrated and eluted with 50 mM NaCl, 10 mM HEPES, 1 mM EDTA, pH 7.0. The liposomes were used within 30 h. Twenty-five microliters of liposomes were dispersed into 2.0 mL of the elution buffer and placed into a quartz fluorescence cuvette. The fluorescence was monitored using a Deltascan Spectrofluorometer (Photon Technology Instruments, West Sussex, UK) using excitation at 495 nm and emission at 520 nm. Forty microliters of C16-ceramide (2 mg/mL of isopropanol) were added while stirring. Sphingosine was added from either a 1 mg/mL or a 0.1 mg/mL solution in DMSO.

[3] = published value; cited from earlier work
[4] = test system: ceramide channels in the mitochondrial outer membrane (MOM); assay: Adenylate kinase release assay in isolated rat liver mitochondria; format: biochemical
Method: The preparation yielded a mitochondrial suspension containing 10 mg of protein per mL. […] The mitochondria were then pelleted at 14,000 g for 5 min at 4° C. and the supernatant was kept on ice until assayed. […] The enzymes were added to the rest of the reaction mixture 1 min before the addition of the mitochondrial supernatant to allow a trace of ATP to be consumed. The activity of adenylate kinase was detected as an increase in absorbance at 340 nm. Since the activity of the kinase decays with time, even on ice, experiments were performed in sets and the activity of the first supernatant was assayed again at the end of the set. The values were fitted to a first order decay and all values within the set were corrected for the decay of the activity, based on the time delay before assay.
To determine the effect of sphingosine pretreatment on ceramide permeabilization of the mitochondrial outer membrane, mitochondria were incubated at room temperature in the presence of varying concentrations of sphingosine for […] before addition of ceramide and incubation for 10 min. Untreated mitochondria and mitochondria hypotonically lysed (20 μl into 1.2 ml water) served as negative and positive controls, respectively.
Experiments with C16-ceramide were performed in a similar way except as follows. The mitochondria were suspended in the above medium except that the 1 mM Tris buffer was replaced by 5 mM HEPES. To 1.0 mL of this medium at room temperature (RT) was added 17 μL of mitochondrial suspension that had been kept on ice at a concentration of 4 mg/mL. The final mitochondrial protein concentration during the experiment was 80 μg/mL. In the case of shocked mitochondria, the 1.0 mL of medium was replaced by water. Sphingosine was added, where appropriate, from a 0.25 mg/mL solution in DMSO. Typically 4-7 incubations were run in parallel. All samples were incubated for 5 min at RT. Then some samples received 0.4 mL of fatty acid depleted bovine serum albumin (BSA), 25 mg/mL, followed immediately by 20 μL of C16-ceramide dissolved in isopropanol at 2 mg/mL. After a 10-min incubation at RT, 10 μL of 4 mM PMSF was added followed by centrifugation. In these experiments 0.3 mL of mitochondrial supernatant was added to the adenylate kinase reaction mixture.

[5] = Protein (cytochrome c) release and metabolism of sphingosine in isolated mitochondria; format: biochemical; conditions: compound alone, maximum
[6] = observed in isolated mitochondria and liposome permeability assay

CCCCCCCCCCCCC/C=C/[C@@H](O)[C@@H](N)CO [sphingosine]
ability to form channels [1]: produced real channels
effect of pretreatment on C16-ceramide-induced carboxyfluorescein release from liposomes [2]: biphasic enhancement
CMC [3]: more than 30 μg/mL
permeabilization of the MOM to adenylate kinase after removal of excess compound with BSA ([4]; 2.4 μg/mL for 5 min, then fatty acid depleted BSA, no ceramide added): release of adenylate kinase is evident
effect of preincubation on C16-ceramide permeabilization of the MOM and adenylate kinase release ([4]; 5 min preincubation, C16-ceramide 40 μg/mL, 10 min, low concentration potentiates, higher inhibits): biphasic relationship
sphingosine exposure giving essentially total inhibition of ceramide-dependent adenylate kinase release ([4]; 5 min pretreatment, then C2-ceramide 29 μg/mL for 10 min at room temperature, depends on batch of mitochondria): 0.3 to 0.6 µg/mL
release of adenylate kinase by compound alone ([4]; no ceramide, concentration range up to 6 μg/mL): did not induce the release of adenylate kinase
higher levels that strongly inhibited ceramide channel formation [4, 6]: 5 to 10 µM
low levels that stimulated ceramide induced permeabilization of the mitochondrial outer membrane to proteins [4, 6]: 1 to 2 µM
release of cytochrome c from isolated mitochondria [5]: ≤ 15%
